Test results: patent US10954262B2, “Tunicamycin analogues” (Oxford University Innovation Limited, priority 2017, dated 2021)
In brackets after ≈: the same amount, converted by molar mass. Structures can show the parent of a compound that is named as a salt. Where two headings read alike, the source gives them in different places.

Columns and labels:
[1] = system: Bacillus cereus (ATCC11778); assay: Kirby-Bauer disc diffusion susceptibility test; format: cell-based; conditions: for Antibacterial activity in disc diffusion test: 5 μg per disc; for zone of inhibition at 5 µg/disc: ATCC11778, 6 mm disc impregnated with 5 μg, 20 hours, 35° C., read-out: Diffusion distance (zone diameter)
Protocol: (§1) Bioactivity was assessed using the Kirby-Bauer disc diffusion susceptibility test. Oxoid Blank Discs were impregnated with the desired test substance. A 0.5 McFarland standard inoculum was prepared by adding 3-5 single colonies to 10 mL MH broth in a 15 mL falcon tube and standardised to 0.5 McFarland standard. The inoculum was used within 10 minutes. A sterile cotton swab was dipped in the inoculum, gently pressed against the side of the tube to remove excess liquid, and generously streaked on MH agar plate to fully cover the plate. The impregnated disc was carefully placed on the agar. The plate was incubated at 35° C. for 20 hrs overnight. A digital calliper was used to measure the zone diameter. The recorded zone diameter is an average of three zone diameters measured of one zone.
(§2) Each 6 mm disc was impregnated with 5 μg of the relevant compound (TM, A, B, C, D, or any of E1 to E7), and the diffusion zone recorded after 20 hours.
(§3) Results are shown for E2 to E7 and TM. Values quoted are zone diameters, with larger numbers indicating higher antibacterial activity.

[2] = system: Bacillus subtilis (EC1524); assay: Kirby-Bauer disc diffusion susceptibility test; format: cell-based; conditions: for Antibacterial activity in disc diffusion test: 5 μg per disc; for zone of inhibition at 5 µg/disc: 6 mm disc impregnated with 5 μg, 20 hours, 35° C., read-out: Diffusion distance (zone diameter)
Protocol: as §1, §2, §3

[3] = system: Bacillus subtilis (EC1524); assay: microbe, parasite or virus in culture; format: cell-based; conditions: for MIC: MH broth, 35° C., 20-24 hours; for IC50: OD600 dose-response curve; for MBC: additional 20 hours on MH agar
[4] = system: Bacillus cereus (ATCC11778); assay: microbe, parasite or virus in culture; format: cell-based; conditions: for MIC: MH broth, 35° C., 20-24 hours; for IC50: OD600 dose-response curve; for MBC: additional 20 hours on MH agar
[5] = system: Pseudomonas aeruginosa (ATCC27853); assay: microbe, parasite or virus in culture; format: cell-based
[6] = system: HEK293 kidney cells; assay: Cell proliferation assay / cell morphology (cytotoxicity); format: cell-based, human; conditions: for Minimum lethal dose: HEK293; for viable cells: human
Protocol: (§4) Underlying scaffolds A, B, C and D and lipid-varied analogues E1 to E7 were assayed for cytotoxicity towards human liver cells (Hep2G) and human kidney cells (HEK293).
(§5) Mammalian cells were cultured in DMEM medium supplemented with 10% heat inactivated fetal bovine serum (FBS, v/v). The cultures were maintained in a humidified incubator at 37° C. in 5% CO2/95% air. FBS was reduced to 2% for the cell proliferation assay.
(§6) In sterile 96-well plate, each well was seeded with 1×10^5 cells. The cells were then grown confluent overnight in 100 μL DMEM with 10% FBS. The medium was replenished with DMEM with 2% FBS and added vehicle control or test substance the next day. For test substance in methanol, stock was added to 25 μL of DMEM with 2% FBS or PBS and placed in a laminar flow hood to let the methanol evaporate (about 1-3 hrs). Once the methanol has evaporated, DMEM with 2% FBS was added to final volume of 100 μL of desired test concentration. […] Cells were grown for additional 24 hrs. The cell viability was determined by using a Promega CellTiter 96 AQueous One Solution Cell Proliferation Assay System following the manufacturer's protocol.

[7] = system: HepG2 liver cells; assay: as above; format: cell-based, human; conditions: for Minimum lethal dose: HepG2; for viable cells: human
Protocol: as §4, §5, §6

[8] = system: Pseudomonas aeruginosa (ATCC27853); assay: Kirby-Bauer disc diffusion susceptibility test; format: cell-based; conditions: 6 mm disc, 5 μg
Protocol: as §1, §2
Underlying scaffolds A, B, C and D and lipid-varied analogues E1 to E7 were assayed for potency against Pseudomonas aeruginosa (ATCC27853), according to the methods of Example 2. Results of the Kirby-Bauer disc diffusion susceptibility test conducted using Pseudomonas aeruginosa (ATCC27853) as a test organism are shown in FIG. 2 and in Table 3. MIC, MBC and IC50 values were also obtained as in Example 2.

[9] = Single-dose PK study, intraperitoneal injection; format: in vivo; conditions: mice
Protocol: The initial dose was 30 mg/kg. The x-axis indicates the time in hours after the initial injection and the y-axis indicates the blood plasma concentration of TM-8 in μg/mL in the mice.
A single-dose PK study was done using 16 mice at a dose of 30 mg/kg for the TM-8 analogue, di-N-octanoyl-tunicamycin. […] This study confirmed that the formulation was suitable for injections, and the drug is stable enough in physiological conditions.

[10] = system: Mycobacterium tuberculosis H37RV; assay: MIC in GAST/Fe and 7H9/ADC/Tw growth medium at 1 and 2 weeks; format: cell-based; conditions: for MIC: Mycobacterium tuberculosis, H37RV

Structure (SMILES)	Antibacterial activity in disc diffusion test [1]	Antibacterial activity in disc diffusion test [2]	MIC [3]	IC50 [3]	MBC [3]	MIC [4]	IC50 [4]	MBC [4]	IC50 [5]	MBC [5]	MIC [5]	Minimum lethal dose [6]	viable cells [6]	Minimum lethal dose [7]	viable cells [7]	zone of inhibition at 5 µg/disc [2]	Diffusion distance [8]	zone of inhibition at 5 µg/disc [1]	further results
CC(=O)N[C@H]1C(O)O[C@H](C[C@@H](O)[C@@H]2O[C@@H](n3ccc(=O)[nH]c3=O)[C@H](O)[C@@H]2O)C(O)C1O (some centres unmarked) [A, N-acetyl-tunicamyl-uracil]	completely inactive	completely inactive	–	–	–	–	–	–	–	–	–	–	–	–	–	–	–	–	–
CC(C)(C)OC(=O)NC1C(O)[C@H](O)C(CO)O[C@@H]1OC1O[C@H](C[C@@H](O)[C@@H]2O[C@@H](n3ccc(=O)[nH]c3=O)[C@H](O)[C@@H]2O)C(O)C(O)[C@H]1NC(=O)OC(C)(C)C (stereo partly drawn) [B, 10′,2″-Di-N-Boc-α-D-glucosamine-(1″-11′)-tunicamyl Uracil]	completely inactive	completely inactive	–	–	–	–	–	–	–	–	–	–	–	–	–	–	–	–	–
CC(=O)NC1C(O)[C@H](O)C(CO)O[C@@H]1OC1O[C@H](C[C@@H](O)[C@@H]2O[C@@H](n3ccc(=O)[nH]c3=O)[C@H](O)[C@@H]2O)C(O)C(O)[C@H]1NC(C)=O (stereo partly drawn) [C, α-D-N-acetylglucosamine-(1″-11′)-N-acetyl Tunicamyl Uracil]	completely inactive	completely inactive	–	–	–	–	–	–	–	–	–	–	–	–	–	–	–	–	–
CC(C)=CCC[C@H](C)CC(=O)NC1C(OC2OC(C[C@@H](O)[C@H]3O[C@@H](n4ccc(=O)[nH]c4=O)[C@H](O)[C@@H]3O)C(O)C(O)[C@H]2NC(=O)C[C@@H](C)CCC=C(C)C)OC(CO)[C@@H](O)C1O (some centres unmarked) [Compound E1, Di-N-citronoyl-tunicamycin]	–	–	6.25 mg/L (≈ 7.18 µM)	0.415 mg/L (≈ 0.476 µM)	> 100 mg/L	100 mg/L (≈ 115 µM)	6.29 mg/L (≈ 7.22 µM)	> 200 mg/L	70.3 mg/L (≈ 80.7 µM)	> 400 mg/L	200 mg/L (≈ 230 µM)	>400 µg/mL	> 75%	>400 µg/mL	> 75%	–	–	–	–
CCCCCCC(=O)NC1C(OC2OC(C[C@@H](O)[C@H]3O[C@@H](n4ccc(=O)[nH]c4=O)[C@H](O)[C@@H]3O)C(O)C(O)[C@H]2NC(=O)CCCCCC)OC(CO)[C@@H](O)C1O (some centres unmarked) [Compound E2, Di-N-heptanoyl tunicamycin]	–	–	6.25 mg/L (≈ 7.9 µM)	3.39 mg/L (≈ 4.29 µM)	> 50 mg/L	100 mg/L (≈ 126 µM)	13.3 mg/L (≈ 16.9 µM)	> 200 mg/L	62.4 mg/L (≈ 79 µM)	> 400 mg/L	100 mg/L (≈ 126 µM)	>400 µg/mL	> 75%	>400 µg/mL	> 75%	10 mm	7 mm	–	–
CCCCCCCC(=O)NC1C(OC2OC(C[C@@H](O)[C@H]3O[C@@H](n4ccc(=O)[nH]c4=O)[C@H](O)[C@@H]3O)C(O)C(O)[C@H]2NC(=O)CCCCCCC)OC(CO)[C@@H](O)C1O (some centres unmarked) [Compound E3, Di-N-octanoyl-tunicamycin]	–	–	0.78 mg/L (≈ 0.952 µM)	0.201 mg/L (≈ 0.246 µM)	> 0.98 mg/L	6.25 mg/L (≈ 7.63 µM)	0.782 mg/L (≈ 0.955 µM)	50 mg/L (≈ 61.1 µM)	46.5 mg/L (≈ 56.8 µM)	> 400 mg/L	100 mg/L (≈ 122 µM)	>400 µg/mL	–	>400 µg/mL	–	16 mm	9 mm	12 mm	Detectability in blood plasma ([9]; 6 hours after intraperitoneal injection, 30 mg/kg): easily detectable; Stability in physiological conditions ([9]; 30 mg/kg intraperitoneal): stable enough
CCCCCCCCC(=O)NC1C(OC2OC(C[C@@H](O)[C@H]3O[C@@H](n4ccc(=O)[nH]c4=O)[C@H](O)[C@@H]3O)C(O)C(O)[C@H]2NC(=O)CCCCCCCC)OC(CO)[C@@H](O)C1O (some centres unmarked) [Compound E4, Di-N-nonanoyl-tunicamycin]	–	–	0.024 mg/L (≈ 0.0283 µM)	0.0146 mg/L (≈ 0.0172 µM)	> 0.06 mg/L	0.78 mg/L (≈ 0.921 µM)	0.0723 mg/L (≈ 0.0854 µM)	25 mg/L (≈ 29.5 µM)	55 mg/L (≈ 64.9 µM)	400 mg/L (≈ 472 µM)	100 mg/L (≈ 118 µM)	>400 µg/mL	> 75%	>400 µg/mL	> 75%	16 mm	13 mm	13 mm	MIC lower than naturally occurring tunicamycin TM ([10]; in some cases): approximately 5 fold
CCCCCCCCCC(=O)NC1C(OC2OC(C[C@@H](O)[C@H]3O[C@@H](n4ccc(=O)[nH]c4=O)[C@H](O)[C@@H]3O)C(O)C(O)[C@H]2NC(=O)CCCCCCCCC)OC(CO)[C@@H](O)C1O (some centres unmarked) [Compound E5, Di-N-decanoyl-tunicamycin]	–	–	0.39 mg/L (≈ 0.446 µM)	0.114 mg/L (≈ 0.13 µM)	> 0.39 mg/L	0.39 mg/L (≈ 0.446 µM)	0.0461 mg/L (≈ 0.0527 µM)	12.5 mg/L (≈ 14.3 µM)	53.5 mg/L (≈ 61.1 µM)	400 mg/L (≈ 457 µM)	100 mg/L (≈ 114 µM)	>400 µg/mL	> 75%	>400 µg/mL	> 75%	10 mm	12 mm	9 mm	–
CCCCCCCCCCC(=O)NC1C(OC2OC(C[C@@H](O)[C@H]3O[C@@H](n4ccc(=O)[nH]c4=O)[C@H](O)[C@@H]3O)C(O)C(O)[C@H]2NC(=O)CCCCCCCCCC)OC(CO)[C@@H](O)C1O (some centres unmarked) [Compound E6, Di-N-undecanoyl-tunicamycin]	–	–	1.56 mg/L (≈ 1.73 µM)	0.852 mg/L (≈ 0.943 µM)	> 6.25 mg/L	0.78 mg/L (≈ 0.864 µM)	0.0878 mg/L (≈ 0.0972 µM)	25 mg/L (≈ 27.7 µM)	63.2 mg/L (≈ 69.9 µM)	400 mg/L (≈ 443 µM)	100 mg/L (≈ 111 µM)	>400 µg/mL	> 75%	>400 µg/mL	> 75%	6 mm	12 mm	7 mm	1-week MIC [10]: 2.8 mg/L; 2-week MIC [10]: 2.8 mg/L; MIC ([10]; 168 h, read-out: 1-week MIC): 5.6 mg/L (≈ 6.2 µM); MIC ([10]; 336 h, read-out: 2-week MIC): 5.6 mg/L (≈ 6.2 µM)
CCCCCCCCCCCC(=O)NC1C(OC2OC(C[C@@H](O)[C@H]3O[C@@H](n4ccc(=O)[nH]c4=O)[C@H](O)[C@@H]3O)C(O)C(O)[C@H]2NC(=O)CCCCCCCCCCC)OC(CO)[C@@H](O)C1O (some centres unmarked) [Compound E7, Di-N-dodecanoyl-tunicamycin]	–	–	100 mg/L (≈ 107 µM)	58.9 mg/L (≈ 63.2 µM)	> 200 mg/L	50 mg/L (≈ 53.7 µM)	1.4 mg/L (≈ 1.51 µM)	> 200 mg/L	81.9 mg/L (≈ 88 µM)	> 400 mg/L	200 mg/L (≈ 215 µM)	>400 µg/mL	> 75%	>400 µg/mL	> 75%	–	8 mm	–	–
NC1C(O)[C@H](O)C(CO)O[C@@H]1OC1O[C@H](C[C@@H](O)[C@@H]2O[C@@H](n3ccc(=O)[nH]c3=O)[C@H](O)[C@@H]2O)C(O)C(O)[C@H]1N (stereo partly drawn) [D, α-D-glucosamine-(1″-11′)-tunicamyl Uracil Dihydrochloride]	completely inactive	completely inactive	–	–	–	–	–	–	–	–	–	–	–	–	–	–	–	–	–
